Experimental data published in article PMC9924185, “A validated LC–MS/MS method for clinical pharmacokinetics and presumptive phase II metabolic pathways following oral administration of Andrographis paniculata extract” (Scientific Reports, 2023).
Where two headings read alike, the source gives them in different places.

How the values were obtained:
[1] = Stability in urine under different storage conditions; format: physicochemical, human
Method: (§4) The stability of plasma and urine samples were evaluated at three different QC concentration levels (LQC, MQC and HQC, n = 3 for each level); the conditions were freeze–thaw stability, long-term stability, short-term stability, and post preparative stability in an autosampler. The evaluation of stability under freeze–thaw condition was carried out over five cycles of − 80 °C for at least 12 h of each cycle. Long-term stability was analyzed after storing the samples at − 80 °C. Short-term stability of each analyte, for up to 8 h during processing on the bench at room temperature, was also evaluated. For evaluation of post-preparative stability, the extracted samples were stored at ambient temperature (4 °C) in an autosampler for 24 h. The analyte was considered as a stable sample when the average percentage of accuracy of the QC sample was in the range of 85–115% and the %CV was not over 15%.

[2] = plasma
Method: as §4

[3] = Cumulative urine excretion after single oral administration of A. paniculata extract; format: in vivo, human
Method: (§1) An aliquot of 50 µL of plasma or urine was placed in a 1.5 mL of polypropylene centrifuge micro-tube. Protein was removed from the sample by adding 200 µL of methanol (containing 50.00 ng/mL of IS). The mixture was vortexed for 10 min and was then centrifuged at 12,000 rpm, 4 °C for 10 min. The supernatant was filtered through a […] PVDF membrane (Chrom Tech) and transferred into a glass insert in a vial before LC‑MS/MS analysis.
(§2) The clinical pharmacokinetic study was designed as an open-labeled, with a single oral dosing, and conducted under a fasting condition. Four healthy subjects were recruited according to the following inclusion criteria: 18—55 years old with a body mass index (BMI) of 18–30 kg/m^2. Study participants were identified as healthy based on laboratory testing and physical examinations. The participants received 3 capsules containing A. paniculata extract (calculated as 60 mg of andrographolide/dose) before breakfast with 240 mL of drinking water. Blood samples, in EDTA tubes, were taken after oral administration at 0, 10, 20, 30, 45 min, and 1, 1.5, 2, 4, 6, 8, 10, 12, 24 h post dose. All blood samples were then centrifuged at 4000 ± 100 rpm, 4 °C for 5 min. Plasma was pipetted and stored in cryotubes at − 80 °C until further analysis. Urine samples were collected during 0–4, 4–8, 8–12, 12–24, 24–32, 32–40 and 40–48 h after dosing and were then kept at − 80 °C before sample extraction.
(§3) Finally, the hydrolysis of glucuronide metabolites in the pharmacokinetic study was performed according to the following process: 50 µL of plasma or urine sample was incubated for 30 min with 50 µL of 1000 U/mL β-glucuronidase in phosphate buffer pH 6.8 (composed of 0.1 M sodium phosphate monobasic and 0.1 M sodium phosphate dibasic) at 37 °C. For the hydrolysis of sulfatase, 50 µL of 100 units/mL of sulfatase in an acetate buffer at pH 5.0 (composed of 0.1 M acetic acid and 0.1 M sodium acetate) was added into 50 µL of sample; the mixture was then incubated at 37 °C for 2 h. The reaction was stopped in all hydrolysis samples with 150 µL of cold methanol, and then protein precipitation was performed prior to LC–MS/MS analysis. However, due to unavailable standard of the conjugated forms (AP-glucuronide and […]). The quantitative analysis of conjugated metabolites was determined after the hydrolysis reaction by enzymatic digestion, and the free form was analyzed without hydrolysis. The conjugated standards of AP-glucuronide or AP-sulfate should be synthesized for determining the exact amount of the glucuronide or sulfate.

[4] = Clinical pharmacokinetics in plasma after single oral administration of A. paniculata extract; format: in vivo, human; conditions: for Cmax / AUC(0-t) / Vd/F / Tmax / half-life: human, parent compound in plasma, single oral dose of extract (60 mg andrographolide); for Cmax: healthy subjects n = 4; for Cmax / AUC(0-t) / Vd/F: mean ± SD; for AUC(0-t) / Vd/F / Tmax / half-life: n = 4; for Tmax / half-life: median; for AUC of both conjugated metabolites compared to the respective parent compounds: plasma, single oral dose of extract
Method: as §1, §2
Pharmacokinetic parameters were determined by non-compartmental analysis using PK solutions software, version 2.0 (Summit Research Services). The maximum concentration of four targeted compounds (Cmax) and the time to reach maximum concentration (Tmax) were taken directly from the individual plasma concentration versus time profiles. The area under the curve from time zero to the last sampling time (AUC0-t) was estimated using the linear trapezoidal rule. The apparent volume of distribution (Vd/F) and the elimination half-life (t1/2) were determined using non-compartmental analysis.
as §3

[5] = Freeze–thaw stability 5 cycles, 2.50 ng/mL (LQC)
[6] = Freeze–thaw stability 5 cycles, 500.00 ng/mL (MQC)
[7] = Freeze–thaw stability 5 cycles, 900.00 ng/mL (HQC)
[8] = Long term stability 3 months at − 80 °C, 2.50 ng/mL (LQC)
[9] = Long term stability 3 months at − 80 °C, 500.00 ng/mL (MQC)
[10] = Long term stability 3 months at − 80 °C, 900.00 ng/mL (HQC)
[11] = Post preparative stability 24 h at autosampler, 2.50 ng/mL (LQC)
[12] = Post preparative stability 24 h at autosampler, 500.00 ng/mL (MQC)
[13] = Post preparative stability 24 h at autosampler, 900.00 ng/mL (HQC)
[14] = Short term stability 8 h at room temperature, 2.50 ng/mL (LQC)
[15] = Short term stability 8 h at room temperature, 500.00 ng/mL (MQC)
[16] = Short term stability 8 h at room temperature, 900.00 ng/mL (HQC)

In the case of `C=C1CC[C@@H]2[C@](C)(CO)[C@H](O)CC[C@@]2(C)[C@@H]1C/C=C1/C(=O)OC[C@H]1O` [AP1, andrographolide], the “%Accuracy” value [1, 5] is reported as 94.39%, the Measured concentration [1, 5] is reported as 2.36 ± 0.20 ng/mL and the “%Accuracy” value [1, 6] is reported as 94.01%. The Measured concentration [1, 6] was 470.05 ± 32.15 ng/mL, the “%Accuracy” value [1, 7] was 98.78% and the Measured concentration [1, 7] was 889.00 ± 36.63 ng/mL. For the same compound, the “%Accuracy” value [1, 8] was 95.31%, the Measured concentration [1, 8] was 2.38 ± 0.16 ng/mL and the “%Accuracy” value [1, 9] was 91.78%. For the same compound, the Measured concentration [1, 9] was 458.89 ± 20.53 ng/mL, the “%Accuracy” value [1, 10] was 98.08% and the Measured concentration [1, 10] was 882.74 ± 14.22 ng/mL. The “%Accuracy” value [1, 11] was 94.23%, the Measured concentration [1, 11] was 2.36 ± 0.18 ng/mL and the “%Accuracy” value [1, 12] was 95.00%. For the same compound, the Measured concentration [1, 12] was 474.97 ± 23.30 ng/mL, the “%Accuracy” value [1, 13] was 99.66% and the Measured concentration [1, 13] was 896.96 ± 17.62 ng/mL. For the same compound, the “%Accuracy” value [1, 14] was 93.15%, the Measured concentration [1, 14] was 2.33 ± 0.06 ng/mL and the “%Accuracy” value [1, 15] was 95.80%. The Measured concentration [1, 15] was 479.00 ± 32.64 ng/mL, the “%Accuracy” value [1, 16] was 101.88% and the Measured concentration [1, 16] was 916.95 ± 32.00 ng/mL. For the same compound, the “%Accuracy” value [2, 5] was 97.99%, the Measured concentration [2, 5] was 2.45 ± 0.06 ng/mL and the “%Accuracy” value [2, 6] was 93.01%. For the same compound, the Measured concentration [2, 6] was 465.07 ± 25.39 ng/mL, the “%Accuracy” value [2, 7] was 95.28% and the Measured concentration [2, 7] was 857.48 ± 19.46 ng/mL. For the same compound, the “%Accuracy” value [2, 8] was 94.28%, the Measured concentration [2, 8] was 2.36 ± 0.06 ng/mL and the “%Accuracy” value [2, 9] was 91.77%. The Measured concentration [2, 9] was 458.87 ± 8.67 ng/mL, the “%Accuracy” value [2, 10] was 99.25% and the Measured concentration [2, 10] was 893.21 ± 22.77 ng/mL. The “%Accuracy” value [2, 11] was 93.81%, the Measured concentration [2, 11] was 2.35 ± 0.18 ng/mL and the “%Accuracy” value [2, 12] was 92.60%. The Measured concentration [2, 12] was 463.01 ± 10.97 ng/mL, the “%Accuracy” value [2, 13] was 99.52% and the Measured concentration [2, 13] was 895.66 ± 31.23 ng/mL. The “%Accuracy” value [2, 14] was 93.65%, the Measured concentration [2, 14] was 2.34 ± 0.15 ng/mL and the “%Accuracy” value [2, 15] was 89.06%. The Measured concentration [2, 15] was 445.29 ± 9.56 ng/mL, the “%Accuracy” value [2, 16] was 98.76% and the Measured concentration [2, 16] was 888.87 ± 23.16 ng/mL. For the same compound, the Route of excretion [3] was “primarily excreted renally”, the Cmax [4] was 60.9 ± 26.5 ng/mL and the AUC(0-t) [4] was 210 ± 21.1 ng·h/mL. The Vd/F [4] was 4.58 ± 3.28 L/kg, the Tmax [4] was 0.8 h and the half-life [4] was 76.2 min. For the same compound, the “AUC of both conjugated metabolites compared to the respective parent compounds” value [4] was “greater”.
With `C=C1CC[C@@H]2[C@](C)(CO)[C@H](O)CC[C@@]2(C)[C@@H]1/C=C/C1=CCOC1=O` [AP3, 14-deoxy-11, 12-didehydroandrographolide] the “%Accuracy” value [1, 5] was 93.92%, the Measured concentration [1, 5] was 2.35 ± 0.10 ng/mL and the “%Accuracy” value [1, 6] was 91.91%. For the same compound, the Measured concentration [1, 6] was 459.54 ± 15.54 ng/mL, the “%Accuracy” value [1, 7] was 100.19% and the Measured concentration [1, 7] was 901.72 ± 35.81 ng/mL. For the same compound, the “%Accuracy” value [1, 8] was 94.28%, the Measured concentration [1, 8] was 2.36 ± 0.06 ng/mL and the “%Accuracy” value [1, 9] was 90.36%. The Measured concentration [1, 9] was 451.82 ± 15.00 ng/mL, the “%Accuracy” value [1, 10] was 98.18% and the Measured concentration [1, 10] was 883.61 ± 32.83 ng/mL. For the same compound, the “%Accuracy” value [1, 11] was 93.61%, the Measured concentration [1, 11] was 2.34 ± 0.11 ng/mL and the “%Accuracy” value [1, 12] was 90.33%. For the same compound, the Measured concentration [1, 12] was 451.66 ± 9.81 ng/mL, the “%Accuracy” value [1, 13] was 100.28% and the Measured concentration [1, 13] was 902.47 ± 52.60 ng/mL. The “%Accuracy” value [1, 14] was 94.35%, the Measured concentration [1, 14] was 2.36 ± 0.07 ng/mL and the “%Accuracy” value [1, 15] was 90.63%. The Measured concentration [1, 15] was 453.16 ± 19.26 ng/mL, the “%Accuracy” value [1, 16] was 101.88% and the Measured concentration [1, 16] was 916.89 ± 26.49 ng/mL. For the same compound, the “%Accuracy” value [2, 5] was 102.35%, the Measured concentration [2, 5] was 2.56 ± 0.21 ng/mL and the “%Accuracy” value [2, 6] was 93.25%. The Measured concentration [2, 6] was 466.24 ± 38.67 ng/mL, the “%Accuracy” value [2, 7] was 98.75% and the Measured concentration [2, 7] was 888.74 ± 16.64 ng/mL. The “%Accuracy” value [2, 8] was 87.13%, the Measured concentration [2, 8] was 2.18 ± 0.05 ng/mL and the “%Accuracy” value [2, 9] was 94.32%. The Measured concentration [2, 9] was 471.59 ± 4.35 ng/mL, the “%Accuracy” value [2, 10] was 98.11% and the Measured concentration [2, 10] was 883.01 ± 16.08 ng/mL. For the same compound, the “%Accuracy” value [2, 11] was 97.41%, the Measured concentration [2, 11] was 2.44 ± 0.04 ng/mL and the “%Accuracy” value [2, 12] was 94.34%. The Measured concentration [2, 12] was 471.70 ± 15.57 ng/mL, the “%Accuracy” value [2, 13] was 100.12% and the Measured concentration [2, 13] was 901.09 ± 11.50 ng/mL. For the same compound, the “%Accuracy” value [2, 14] was 97.61%, the Measured concentration [2, 14] was 2.44 ± 0.04 ng/mL and the “%Accuracy” value [2, 15] was 94.40%. For the same compound, the Measured concentration [2, 15] was 472.00 ± 19.37 ng/mL, the “%Accuracy” value [2, 16] was 98.65% and the Measured concentration [2, 16] was 887.83 ± 21.04 ng/mL. The Route of excretion [3] was “primarily excreted renally”, the Cmax [4] was 83.8 ± 22.2 ng/mL and the AUC(0-t) [4] was 309 ± 59 ng·h/mL. The Vd/F [4] was 0.73 ± 0.1 L/kg, the Tmax [4] was 1.5 h and the half-life [4] was 82.8 min. The “AUC of both conjugated metabolites compared to the respective parent compounds” value [4] was “greater”.
